For this experiment, the target named is T1, Gonadotropin-releasing hormone receptor (Rattus norvegicus, UniProt P30969).
T1 sequence (P30969 whole entry): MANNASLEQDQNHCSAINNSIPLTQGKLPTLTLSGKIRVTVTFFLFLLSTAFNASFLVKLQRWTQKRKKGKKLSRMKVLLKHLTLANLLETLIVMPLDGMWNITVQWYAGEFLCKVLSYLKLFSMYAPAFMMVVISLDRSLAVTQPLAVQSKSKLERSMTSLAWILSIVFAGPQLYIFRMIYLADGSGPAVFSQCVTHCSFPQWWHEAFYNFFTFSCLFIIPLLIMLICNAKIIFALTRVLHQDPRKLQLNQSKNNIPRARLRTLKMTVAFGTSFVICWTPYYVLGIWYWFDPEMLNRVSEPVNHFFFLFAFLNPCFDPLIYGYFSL
The experiment can be described thus: Inhibition of rat GnRH receptor binding.
Turning to `Cc1cc(C)cc(-c2[nH]c3ccccc3c2CCNCCCCc2ccc(F)cc2)c1`, the IC50 is 300 nM.

`CNS(=O)(=O)Nc1ccc(CCCCNCCc2c(-c3cc(C)cc(C)c3)[nH]c3ccccc23)cc1` had an IC50 of 47 nM. This IC50 lies about 6.4-fold lower than the previous one.

`CNC(=O)Nc1ccc(CCCCNCCc2c(-c3cc(C)cc(C)c3)[nH]c3ccccc23)cc1` returned a concentration for half-maximal inhibition (IC50) of 48 nM. This IC50 and that of the compound before are within 1.5-fold of each other.

Compound `Cc1cc(C)cc(-c2[nH]c3ccccc3c2CCNCCCCc2ccc(NS(=O)(=O)C(C)C)cc2)c1` displayed an IC50 of 220 nM. Against the preceding compound, the IC50 is about 4.6-fold higher.

`Cc1cc(C)cc(-c2[nH]c3ccccc3c2CCNCCCCc2ccc(N)cc2)c1` came in with an IC50 of 300 nM. This IC50 and that of the compound before are within 1.5-fold of each other.

Regarding `CCNS(=O)(=O)Nc1ccc(CCCCNCCc2c(-c3cc(C)cc(C)c3)[nH]c3ccccc23)cc1`, the half-inhibitory concentration (IC50) was found to be 40 nM.

`CCNC(=O)Nc1ccc(CCCCNCCc2c(-c3cc(C)cc(C)c3)[nH]c3ccccc23)cc1` yielded a half-inhibitory concentration (IC50) of 28 nM. This IC50 and that of the compound before are within 1.5-fold of each other.

For the compound `CC(=O)Nc1ccc(CCCCNCCc2c(-c3cc(C)cc(C)c3)[nH]c3ccccc23)cc1`, the IC50 is 200 nM.

As to `Cc1cc(C)cc(-c2[nH]c3ccccc3c2CCNCCCCc2ccc([N+](=O)[O-])cc2)c1`, the 50% inhibitory concentration (IC50) is 500 nM.

`Cc1cc(C)cc(-c2[nH]c3ccccc3c2CCNCCCCc2ccc(S(N)(=O)=O)cc2)c1` gave an IC50 of 36 nM. This IC50 lies about 14-fold lower than the previous one.

Consider `CCS(=O)(=O)Nc1ccc(CCCCNCCc2c(-c3cc(C)cc(C)c3)[nH]c3ccccc23)cc1`, for which the 50% inhibitory concentration (IC50) was 200 nM.

Take `Cc1cc(C)cc(-c2[nH]c3ccccc3c2CCNCCCCc2ccc(NS(=O)(=O)c3ccccc3)cc2)c1`: the half-maximal inhibitory concentration (IC50) is 300 nM.

As usually defined, the IC50 is the concentration that inhibits the measured activity by half. The low end stands for greater potency, the high end for weaker potency.

The record behind these values is ChEMBL document CHEMBL1134831, “2-(3,5-Dimethylphenyl)tryptamine derivatives that bind to the GnRH receptor” (Bioorg Med Chem Lett, 2001).
